Where two headings read alike, the source gives them in different places.
Assays:
[1] = tested on: K1 strain of P. falciparum (chloroquine resistant); assay: In vitro antimalarial activity, 48-h [3H]-hypoxanthine incorporation assay, K1 strain; format: cell-based, Plasmodium falciparum
Description: Antimalarial activity. Two strains of P. falciparum were used in this study: (a) The K1 strain which is known to be CQ resistant and (b) the HB3 strain which is sensitive to all antimalarials. Parasites were maintained in continuous culture using the method of Jensen and Trager. (J. Parasitol., 1977, 63, 883-886) Cultures were grown in flasks containing human erythrocytes (2-5%) with parasitemia in the range of 1% to 10% suspended in RPMI 1640 medium supplemented with 25 mM HEPES and 32 mM NaHCO3, and 10% human serum (complete medium). Cultures were gassed with a mixture of 3% O2, 4% CO2 and 93% N2. Antimalarial activity was assessed with an adaption of the 48-h sensitivity assay of Desjardins et al. (Antimicrob. Agents. Chemother., 1979, 16, 710-718.) using [^3H]-hypoxanthine incorporation as an assessment of parasite growth. Stock drug solutions were prepared in 100% dimethylsulphoxide (DMSO) and diluted to the appropriate concentration using complete medium. Assays were performed in sterile 96-well microtitre plates, each plate contained 200—1 of parasite culture (2% parasitemia, 0.5% haematocrit) with or without 10—1 drug dilutions. Each drug was tested in triplicate and parasite growth compared to control wells (which consituted 100% parasite growth). After 24-h incubation at 37° C., 0.5_Ci hypoxanthine was added to each well. Cultures were incubated for a further 24 h before they were harvested onto filter-mats, dried for 1 h at 55° C. and counted using a Wallac 1450 Microbeta Trilux Liquid scintillation and luminescence counter. IC50 values were calculated by interpolation of the probit transformation of the log dose—response curve. In Vivo Testing Protocol Male, random Swiss albino mice weighing 18-22 g were inoculated intraperitoneally with 10^7 parasitised erythrocytes with P. yoelii NS strain. Animals were then dosed daily via two routes (intraparential or oral) for four consecutative days beginning on the day of infection. Compounds were dissolved or suspended in the vechile solution consisting of methanol, phosphate buffered saline and DMSO (2:5:3 v/v).

[2] = Biliary and urinary excretion and tissue distribution of radioactivity 5 h after i.v. [3H]AQ or [3H]ISQ; format: in vivo, Male Wistar rats; conditions: for % of dose accounted for (bile, tissues, plasma, urine): total recovery
Description: Investigation of Biliary and Urinary Excretion of [^3H] AQ and [^3H] ISQ After Administration to Male Wistar Rats. […] The rats were carefully monitored throughout the procedure to ensure that anaesthesia was maintained. A small incision was made in the throat and the trachea was located, via blunt dissection of the surrounding connective tissue. A 1.57 mm (I.D.) polythene tube cannula was inserted and securely fastened. […] A syringe containing saline was attached to the jugular cannula to act as a seal preventing air bubbles from entering the vein. An incision was made along the midline of the abdomen. The common bile duct was located and allowed to dilate before a 0.58 mm (I.D.) cannula was inserted. Control bile was obtained. The penis was ligated, to allow urine to be collected during the experiment. […] DMSO replaced the saline in the jugular cannula to prevent the drug precipitating out of solution during dosing. A 500 μl Hamilton syringe was filled with either [^3H]AQ or [^3H]ISQ (54 μmol/kg, 25 μCi/kg) and connected to the cannula. The radiolabelled compounds were infused via the jugular vein over a period of 30 mins to prevent respiratory depression caused by DMSO. Bile fractions were collected at hourly intervals for 5 h from the start of dosing, All samples were weighed and there weight recorded. After 5 h any remaining urine was aspirated from the bladder and blood was collected via cardiac puncture with a heparinised needle into a heparinised tube. […] Tissues (brain, heart, kidney, liver, lung, spleen and skin) were removed from the animal, rinsed in saline before being placed in vials and weighed. All samples were stored at −80° C. until they were required for analysis. […] Samples were left in darkness overnight to prevent chemiluminescence. Radioactivity was then determined using a Packard 1500 Liquid Scintillation Analyser. Portions of each tissue (50-100 mg) and aliquots of red blood cells (50-60 mg) were taken in duplicate; tissue solubilizer (0.5 ml) was added to each sample and left overnight at 50° C. The samples were cooled to room temperature before being decolourised with hydrogen peroxide (200 μl) and left for 1 h. The mixture was then neutralised with glacial acetic acid (30 μl) and 12 ml of scintillation fluid was added. The mixture was mixed thoroughly and left overnight in the dark. The samples were assayed for radioactivity. (all volumes of chemicals to be added were doubled for solubulizing the red blood cells)

P. bergheri = assay: In vivo activity in the mouse model against P. bergheri; conditions: in words
[3] = LC/MS and radiochromatographic analysis of urinary, biliary and plasma metabolites; format: in vivo, Male Wistar rats; conditions: for biliary metabolite identified (main) / glutathione (GSH) conjugates or metabolites found: rat bile; for biliary metabolite identified (main): i.v.; for glutathione (GSH) conjugates or metabolites found: urine or blood; for main compound or metabolite in plasma: rat plasma ether extracts
Description: After the fifth hour sample had been collected, all remaining blood within the rat was allowed to drain from the cannula into a heparinised tube. All samples were centrifiged (4000 rpm for 5 min) immediately after collection and the pellet and supernatant were separated. The volume of the plasma was recorded. The tissues were also removed and weighed all samples were stored at −80° C. until analysed. The active components of the plasma were removed via extraction with ether for LC/MS analysis.
Analysis of Urinary, Binary and Plasma Metabolites of Male Wistar Rats Dosed with [3H]AQ or [^3H]ISQ.
Our samples were analysed using MassLynx software. Aliquots (50-100 μl) of bile, urine and plasma ether extracts, were eluted from a Zorbax SB-18 column with a slow acetonitrile gradient (10-50% over 30 mins) in ammonium acetate (5.0 mM, pH3.8) at 0.9 ml/min. Two Jasco PU-980 pumps were linked to a mixing module, allowing effluent to mix with scintillation fluid prior to reaching the Flo-One A250 _eta radioactive flow detector or allowing the effluent to be delivered to the Quattro II mass spectrometer. Nebulising and drying gas were delivered at a rate of 13 L/h and 300 L/h respectively. The temperature of the LC/MS interface was 70° C. and the capillary voltage was […]. The extent of fragmentation was modulated via altering the cone voltage.

[4] = 24 hour metabolism study, distribution of radioactivity; format: in vivo, Male Wistar rats
Description: [^3H]AQ (54 μmol/kg) was administered i.p to male Wistar rats (200-300 g). Each animal was placed in a wire-bottom metabolism cage with access to food and water. Urine was collected over 24 h, the cage was rinsed with distilled water (10 ml) at the end of the collection period. […] All samples were stored at −80° C. until analysed. Previous ISQ data was obtained for comparison with AQ. […] Samples were left in darkness overnight to prevent chemiluminescence. Radioactivity was then determined using a Packard 1500 Liquid Scintillation Analyser. Portions of each tissue (50-100 mg) and aliquots of red blood cells (50-60 mg) were taken in duplicate; tissue solubilizer (0.5 ml) was added to each sample and left overnight at 50° C. The samples were cooled to room temperature before being decolourised with hydrogen peroxide (200 μl) and left for 1 h. The mixture was then neutralised with glacial acetic acid (30 μl) and 12 ml of scintillation fluid was added. The mixture was mixed thoroughly and left overnight in the dark. The samples were assayed for radioactivity. (all volumes of chemicals to be added were doubled for solubulizing the red blood cells)

[5] = tested on: HB3 strain of P. falciparum (chloroquine sensitive); assay: In vitro antimalarial activity, 48-h [3H]-hypoxanthine incorporation assay, HB3 strain; format: cell-based; conditions: Plasmodium falciparum; chloroquine sensitive HB3 isolate, n=4
Description: (§1) Antimalarial activity. Two strains of P. falciparum were used in this study: (a) The K1 strain which is known to be CQ resistant and (b) the HB3 strain which is sensitive to all antimalarials. Parasites were maintained in continuous culture using the method of Jensen and Trager. (J. Parasitol., 1977, 63, 883-886) Cultures were grown in flasks containing human erythrocytes (2-5%) with parasitemia in the range of 1% to 10% suspended in RPMI 1640 medium supplemented with 25 mM HEPES and 32 mM NaHCO3, and 10% human serum (complete medium). Cultures were gassed with a mixture of 3% O2, 4% CO2 and 93% N2. Antimalarial activity was assessed with an adaption of the 48-h sensitivity assay of Desjardins et al. (Antimicrob. Agents. Chemother., 1979, 16, 710-718.) using [^3H]-hypoxanthine incorporation as an assessment of parasite growth. Stock drug solutions were prepared in 100% dimethylsulphoxide (DMSO) and diluted to the appropriate concentration using complete medium. […] Cultures were incubated for a further 24 h before they were harvested onto filter-mats, dried for 1 h at 55° C. and counted using a Wallac 1450 Microbeta Trilux Liquid scintillation and luminescence counter. IC50 values were calculated by interpolation of the probit transformation of the log dose—response curve. […]

[6] = Radioactivity in plasma and red blood cells during 5 h after dosing; format: in vivo, Male Wistar rats; conditions: for average plasma level, % of the dose: throughout the 5 h experiment
Description: The animal was anaesthetised and the jugular vein cannulated as described above. To allow blood samples to be taken regularly, the carotid artery was cannulated with 0.58 mm I.D. polythene tubing. The cannula was attached to a heparinised saline syringe to prevent blood escaping from the cannula and to prevent air bubbles from entering the blood stream. The animals were dosed as described above and the clock was started at the end of the dosing period. Blood samples (300 μl) were collected at 15 mins, 30 mins and hourly post-dosing. Heparinised saline was flushed through the cannula after every blood collection to prevent clotting within the tubing. The saline was allowed to drain out of the cannula prior to every collection point. After the fifth hour sample had been collected, all remaining blood within the rat was allowed to drain from the cannula into a heparinised tube. All samples were […] (4000 rpm for 5 min) immediately after collection and the pellet and supernatant were separated. The volume of the plasma was recorded. The tissues were also removed and weighed all samples were stored at -80° C. until analysed. The active components of the plasma were removed via extraction with ether for LC/MS analysis. […] Samples were left in darkness overnight to prevent chemiluminescence. Radioactivity was then determined using a Packard 1500 Liquid Scintillation Analyser. Portions of each tissue (50-100 mg) and aliquots of red blood cells (50-60 mg) were taken in duplicate; tissue solubilizer (0.5 ml) was added to each sample and left overnight at 50° C. The samples were cooled to room temperature before being decolourised with hydrogen peroxide (200 μl) and left for 1 h. The mixture was then neutralised with glacial acetic acid (30 μl) and 12 ml of scintillation fluid was added. The mixture was mixed thoroughly and left overnight in the dark. The samples were assayed for radioactivity. (all volumes of chemicals to be added were doubled for solubulizing the red blood cells)

P. yoelii NS strain = assay: In vivo 4-day test, P. yoelii NS rodent malaria model; set-up: species or system P. yoelii (Swiss albino mice); conditions: oral administration, standard 4-day test, repeated twice
Description: as §1

[7] = Table 2, chloroquine resistant K1 Plasmodium falciparum, read-out: IC50
[8] = Plasmodium falciparum, chloroquine resistant K1 isolate, n=4, read-out: IC50
[9] = 5 h after i.v. 54 μmol/kg, mean±s.e.m.
[10] = male, Wistar, rat, in vivo, iv, 5 h
[11] = male, Wistar, rat, in vivo, 24 h

CCN(CC)CCCC(C)Nc1ccnc2cc(Cl)ccc12 (stereo not drawn) [Chloroquine, chloroquine, reference compound]
IC50 ([1]; Plasmodium falciparum, K1, read-out: IC50 nM): 190 to 250 nM

CCNCc1ccc(Nc2ccnc3c2=CCC(Cl)C=3)cc1O (stereo not drawn) [ISQ1]
IC50 [1, 7]: 16.5 nM

CN(C)Cc1ccc(Nc2ccnc3c2=CCC(Cl)C=3)cc1O (stereo not drawn) [ISQ2]
IC50 [1, 7]: 25.2 nM

CCCN(CCC)Cc1ccc(Nc2ccnc3c2=CCC(Cl)C=3)cc1O (stereo not drawn) [ISQ3]
IC50 [1, 7]: 23.8 nM

CCCCN(CCCC)Cc1ccc(Nc2ccnc3c2=CCC(Cl)C=3)cc1O (stereo not drawn) [ISQ4]
IC50 [1, 7]: 14.9 nM

CC(C)NCc1ccc(Nc2ccnc3c2=CCC(Cl)C=3)cc1O (stereo not drawn) [ISQ5]
IC50 [1, 7]: 22.7 nM

CCN(CC)Cc1ccc(Nc2ccnc3cc(Cl)ccc23)cc1O [Isoquine, 4-N-(3′-hydroxy-4′-[N,N-diethylaminomethyl])anilino-7-chloroquinoline]
IC50 [1, 8]: 6 nM
IC50 [1, 7]: 15.7 nM
% of dose excreted into bile [2, 9]: 12.73%
% of dose recovered in skin [2, 9]: 21.46%
% of dose remaining in heart [2, 9]: 0.58%
% of dose remaining in liver [2, 9]: 32.93%
% of dose remaining in plasma [2, 9]: 0.13%
increase in liver accumulation compared with AQ ([2]; after 5 h): approximately 10%
% of dose in tissues ([2]; after 5 h, all tissues): 70.92%
% of dose accounted for (bile, tissues, plasma, urine) ([2]; after 5 h): 87.17%
% of dose excreted into urine ([2]; over 5 h after i.v. 54 μmol/kg, mean±s.e.m.): 3.39%
in vivo activity against P. bergheri (P. bergheri): superior in vivo activity
formation of toxic or reactive metabolites ([3]; in vivo, in words): does not form toxic metabolites
biliary metabolite identified (main) ([3]; LC/MS): isoquine aldehyde glucuronide metabolite
glutathione (GSH) conjugates or metabolites found ([3]; LC/MS): complete lack of glutathione metabolites
main compound or metabolite in plasma ([3]; LC/MS): parent compound
main compound excreted in urine ([3]; rat urine, LC/MS): parent compound isoquine
% of dose remaining in liver ([4]; after 24 h): 5.48%
% of dose remaining in skin ([4]; after 24 h): 5.6%
% of dose remaining in the tissues ([4]; after 24 h, 54 μmol/kg): 13.87%
% of dose in remaining tissues ([4]; after 24 h, tissues other than liver and skin): 2.97%
% of dose removed from liver ([4]; difference between 5 h and 24 h): 27.45%
IC50 [5]: 9 nM
plasma levels relative to AQ ([6]; over 5 h): 3 fold
average plasma level, % of the dose [6]: 0.095%
% of dose in red blood cells, constant level ([6]; throughout the experiment): 0.12%

CCN(CC)Cc1cc(Nc2ccnc3cc(Cl)ccc23)ccc1O [amodiaquine, reference compound]
IC50 [1, 8]: 25 nM
% of dose recovered in skin [2, 9]: 22.12%
% of dose accounted for (bile, tissues, plasma, urine) ([2]; after 5 h): 78.56%
% of dose remaining in heart [2, 10]: 0.34%
% of dose remaining in liver [2, 10]: 20.82%
% of dose remaining in plasma [2, 10]: 0.04%
ED50 (P. yoelii NS strain; Plasmodium yoelii, in Mus musculus, po, 96 h, read-out: ED50): 7.9 mg/kg
ED50 (P. yoelii NS strain): 7.4 mg/kg
biliary metabolite identified (main) ([3]; LC/MS): a glutathione conjugate of AQ
glutathione (GSH) conjugates or metabolites found ([3]; LC/MS): glutathione metabolites were observed
main compound or metabolite in plasma ([3]; LC/MS): desethylAQ
% of dose removed from liver ([4]; male, Wistar, rat, in vivo): 13.97%
% of dose remaining in liver [4, 11]: 6.85%
% of dose remaining in plasma [4, 11]: 0.02%
% of dose remaining in skin [4, 11]: 7.18%
IC50 [5]: 18 nM
% of dose in red blood cells after 5 h ([6]; after 5 h): 0.09%
% of dose in red blood cells, initially ([6]; start of 5 h period): 0.12%
average plasma level, % of the dose [6]: approximately 0.034%
